These are literature values, as cited in patent US20250135196A1, “COMPOSITIONS, SYSTEMS, AND METHODS FOR TREATING CANCER USING TUMOR TREATING FIELDS WITH INHIBITORS OF MIF, MICA, AND/OR MICB” (Brown University, priority 2023, published 2025).

The target of one data set is T1, MIF-CD74 (Homo sapiens, UniProt P14174).
T1 sequence (P14174 2-115 limits assumed): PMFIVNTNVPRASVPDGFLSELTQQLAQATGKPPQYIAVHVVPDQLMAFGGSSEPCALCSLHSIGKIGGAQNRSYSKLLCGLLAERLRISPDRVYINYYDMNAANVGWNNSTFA
The following applies: binding assay MIF-CD74; for Kd: read-out: Kd (BA).

Another data set has as its target T2, MIF (Homo sapiens, UniProt P14174).
T2 sequence (P14174 2-115 limits assumed): T1 sequence (P14174 2-115 limits assumed)
The note with it: tautomerase assay; for Ki / IC50: literature values, reference number in brackets in cell; for Ki: read-out: Ki (TA); for fold more potent than ISO-1 (TA): relative to ISO-1.

The IC50 is the point on the concentration scale where inhibition reaches its midpoint. Regarding `COc1cccc(Cn2cc(-c3ccc(O)cc3)nn2)c1OC` [Jorgensen-3g], the IC50 on MIF-CD74 was 900 nM. The Ki is the dissociation constant of the complex between target and ligand, obtained from inhibition or displacement. By Kd is commonly meant the equilibrium constant for the complex coming apart. For `O=C(O)c1cccc(Oc2cc(-c3cn(-c4ccc(O)c(F)c4)nn3)nc3ccccc23)c1` [Dziedzic-3bb], the inhibitory constant (Ki) on MIF is 57 nM. For the same compound, the equilibrium dissociation constant (Kd) on MIF-CD74 was 71 nM. Take `COc1ccc(N2Cc3ccc(O)cc3OC2=O)cc1` [NVS-2]: at MIF, the half-maximal inhibitory concentration (IC50) was 20 nM and the inhibition constant (Ki) is 27 nM. Also, the equilibrium dissociation constant (Kd) at MIF-CD74 is 55 nM. Regarding `Ic1cc(-c2ccccc2)ncn1` [4-IPP, 4-iodo-6-phenylpyrimidine], the 50% inhibitory concentration (IC50) at MIF was 200 to 500 nM. For the compound `Cc1ccccc1-c1cc2ccccc2c(=O)o1` [SCD-19], the “inhibition (TA)” value on MIF (at concentration of 100 μM) is 100% inhibition at concentration of 100 μM [37] (TA).

For `COC(=O)c1cccc(Cn2cc(-c3ccc(O)cc3)nn2)c1` [Jorgensen-3h], the IC50 on MIF-CD74 is 1000 nM. Turning to `COC(=O)CC1CC(c2ccc(O)cc2)=NO1` (racemic) [ISO-1], at MIF-CD74 (maximal inhibition), the “Max. inhibition (BA)” value is on record as 40%. As for `CN(C(=O)CC1CC(c2ccc(Cl)cc2)=NO1)C1CCCCC1` (stereo not shown) [CPSI-2705], the “fold more potent than ISO-1 (TA)” value at MIF was 2-10-fold more potent than ISO-1 (35) (TA). In the case of `O=C(CC1CC(c2ccc(F)cc2F)=NO1)N1CCOCC1` (stereo not shown) [CPS1-1306], the “fold more potent than ISO-1 (TA)” value at MIF is 100-fold more potent than ISO-1 [35] (TA).

Turning to `COC(=O)CC1CC(c2ccc(O)c(F)c2)=NO1` (stereo not shown) [ISO-66], the half-maximal inhibitory concentration (IC50) on MIF was 1500 nM.
